Measurements from patent US10980805B2, “Aza-pyridone compounds and uses thereof” (Janssen BioPharma, Inc., priority 2013, dated 2021).

Experiments:
[1] = system: Influenza strain A549_A/WSN/33 (H1N1); assay: Influenza antiviral assay (neuraminidase fluorescence readout); format: cell-based, Influenza virus; details: Influenza A virus, read-out: % Inhibition (EC50 class, Table 2)
[2] = molecular target: Full length EN PA (influenza PA endonuclease) (Influenza A virus, UniProt P15659); assay: EN PA FRET inhibition assay; format: biochemical; details: FRET probe, mean of a minimum of two independent experiments, read-out: Potency (IC50 class, Table 3)
[3] = system: influenza strains B/Malaysia/2506/2004 or B/Victoria/504/2000; assay: Influenza B assay (fluorescence-based influenza neuraminidase assay); format: cell-based; details: Influenza B virus, A549, 20 h; read-out: Potency (EC50)
[4] = system: Influenza strain A/Port Chalmers/1/73 (H3N2); assay: Combination studies (checker-board, MacSynergy II); format: cell-based, Influenza virus; details: MDCK cells, three days
[5] = Compound 2 = 21-A (PA Inhibitor)
[6] = Compound 2 = Amantadine (M2 Channel-Inhibitor)
[7] = Compound 2 = Rimantadine (M2 Channel-Inhibitor)
[8] = Compound 2 = drawing 296 (Polymerase Inhibitor)

SMILES: CC(C)N1C[C@H](C(c2ccccc2)c2ccccc2)n2ncc(=O)c(O)c2C1=O [Compound 6-A]
- EC50 [1]: < 20 µM
- IC50 [2]: < 0.25 µM
- EC50 [3]: < 20 µM
- Observed Result [4, 5]: additive (volumes in the −25-25 range indicate additive behavior)
- Synergy Volume [4, 5]: 4.1 μM^2%
- Observed Result [4, 6]: additive (volumes in the −25-25 range indicate additive behavior)
- Synergy Volume [4, 6]: 22.5 μM^2%
- Synergy Volume ([4]; Compound 2 = Consensus Interferon alpha (Immuno-modulator)): 70 μM^2%
- Synergy Volume ([4]; Compound 2 = Favipiravir (T-705) (Polymerase Inhibitor)): 185 μM^2%
- Synergy Volume ([4]; Compound 2 = Laninamivir (Neuraminidase-Inhibitor)): 276 μM^2%
- Synergy Volume ([4]; Compound 2 = Oseltamivir (Neuraminidase-Inhibitor)): 233 μM^2%
- Synergy Volume ([4]; Compound 2 = Peramivir (Neuraminidase-Inhibitor)): 308 μM^2%
- Synergy Volume ([4]; Compound 2 = Ribavirin (Polymerase Inhibitor)): 109 μM^2%
- Observed Result [4, 7]: additive (volumes in the −25-25 range indicate additive behavior)
- Synergy Volume [4, 7]: 4.6 μM^2%
- Synergy Volume ([4]; Compound 2 = Zanamivir (Neuraminidase-Inhibitor)): 217 μM^2%
- Observed Result [4, 8]: strongly synergistic
- Synergy Volume [4, 8]: 440 μM^2%
